From publication PMC8214093, “Structural basis of KdpD histidine kinase binding to the second messenger c-di-AMP” (The Journal of Biological Chemistry, 2021)
Values joined by “and” are separate entries in the source; they are usually repeats but may differ in a detail not shown here. Identical values can stand only once.

Assays:
untagged USPSa = experiment: fluorescence-based thermal shift (ThermoFluor) assay; assay type: binding, Staphylococcus aureus; conditions: 7.5-fold molar excess of c-di-AMP; purified untagged USPSa
Experimental: The plates were then sealed with Microseal “B” Seal Seals (Bio-Rad Laboratories) and heated in a CFX96 real-time PCR system (Bio-Rad Laboratories) from 25 °C to 99 °C in increments of 0.5 °C. Fluorescence changes in the plate wells were monitored simultaneously with a charge-coupled device camera, utilizing excitation and emission wavelengths of 497 nm and 520 nm, respectively.

USPSa-WT [1] = target: T1, USPSa-WT (Staphylococcus aureus, UniProt A0A7U7EVR3); experiment: biochemical; assay type: binding; conditions: His6-USPSa WT, MST, changes in initial fluorescence; for Dissociation Constant (KD) ± Standard Deviation: columns without unit
Experimental: For labeling, the proteins were diluted to a concentration of 800 nM in binding buffer (50 mM potassium phosphate, pH 8.0, 800 mM NaCl, and 0.05% Tween 20), mixed with an equal volume of RED-Tris-NTA dye (80 nM), and incubated on ice in the dark for 30 min. […] The labeled proteins and the ligand dilutions were then mixed in a 1:1 ratio and incubated on ice in the dark for 30 min.
The samples were then loaded into Monolith standard-treated capillaries in triplicate, and the changes in fluorescence were measured with 40% LED power and 20% IR-laser power for an on-time of 20-s at 23 °C. To determine the binding affinity, the ligand-dependent changes in the intensity of the initial fluorescence, or the thermophoretic mobility, were analyzed according to the law of mass action in a standard fitting mode of MO.Affinity analysis software (version 2.3). To exclude the possibility of nonspecific binding of the ligand to the His6-tag (on USPSa) or ligand-induced USP adsorption to labware or due to aggregation, we performed His6-peptide and EDTA tests, respectively ([91]). […] In the EDTA test, the binding buffer additionally contained 50 mM EDTA to disrupt the interaction between His6-USP and the RED-Tris-NTA dye.

USPSa-Y248A = target: T2, USPSa-Y248A (Staphylococcus aureus, UniProt A0A7U7EVR3, Y248A); experiment: MicroScale Thermophoresis (initial fluorescence change) nucleotide binding; conditions: Y248A mutant; MST, initial fluorescence; read-out: Dissociation Constant (KD) ± Standard Deviation
T2 sequence (A0A7U7EVR3 213-364 Y248A): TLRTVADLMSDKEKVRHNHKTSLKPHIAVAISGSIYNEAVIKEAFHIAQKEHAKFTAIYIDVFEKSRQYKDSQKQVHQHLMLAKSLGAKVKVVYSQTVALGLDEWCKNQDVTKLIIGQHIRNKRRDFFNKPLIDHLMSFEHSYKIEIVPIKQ
Experimental: (§1) The ligand-binding specificity of USPSa, the role of USPSa residues in c-di-AMP binding, and the c-di-AMP binding affinity of USP homologs were biochemically determined by MST, using purified WT and mutant proteins. […] For these MST experiments, WT and active-site mutants of His6-USPSa were first fluorescently labeled using a RED-Tris NTA Monolith His-Tag labeling kit (Nanotemper, Technologies, Inc). For labeling, the proteins were diluted to a concentration of 800 nM in binding buffer (50 mM potassium phosphate, pH 8.0, 800 mM NaCl, and 0.05% Tween 20), mixed with an equal volume of RED-Tris-NTA dye (80 nM), and incubated on ice in the dark for 30 min. The stock solutions of ligands (c-di-AMP, c-di-GMP, ATP, AMP, c-AMP) were serially diluted with the binding buffer in a 1:1 ratio during each dilution step. The labeled proteins and the ligand dilutions were then mixed in a 1:1 ratio and incubated on ice in the dark for 30 min.
(§2) The samples were then loaded into Monolith standard-treated capillaries in triplicate, and the changes in fluorescence were measured with 40% LED power and 20% IR-laser power for an on-time of 20-s at 23 °C. To determine the binding affinity, the ligand-dependent changes in the intensity of the initial fluorescence, or the thermophoretic mobility, were analyzed according to the law of mass action in a standard fitting mode of MO.Affinity analysis software (version 2.3). To exclude the possibility of nonspecific binding of the ligand to the His6-tag (on USPSa) or ligand-induced USP adsorption to labware or due to aggregation, we performed His6-peptide and EDTA tests, respectively ([91]). In the His6-peptide test, a control His6-peptide was used instead of USP in the binding assay described above, and if no change in initial fluorescence occurred, this confirmed the USP-specific binding of ligands. In the EDTA test, the binding buffer additionally contained 50 mM EDTA to disrupt the interaction between His6-USP and the RED-Tris-NTA dye. The complete loss of the ligand-induced initial fluorescence change in this assay confirmed that this change was neither because of protein aggregation nor because of protein adsorption to labware.
(§3) The Ka values of WT USPSa for c-di-AMP or AMP were set to 100% relative affinity, and the binding affinities of the other nucleotides (Fig. 1C), or USPSa mutants (Fig. 4E), or USP homologs (Fig. 6, B and C) were depicted as percent values compared with the values of the WT USPSa.

USPSa-K282A = USPSa-K282A (Staphylococcus aureus, UniProt A0A7U7EVR3, K282A); experiment: as above; conditions: K282A mutant, MST, read-out: Dissociation Constant (KD) ± Standard Deviation
Experimental: as §1, §2, §3

USPSa-L344A = target: T3, USPSa-L344A (Staphylococcus aureus, UniProt A0A7U7EVR3, L344A); experiment: as above; conditions: L344A mutant; MST, initial fluorescence; read-out: Dissociation Constant (KD) ± Standard Deviation
T3 sequence (A0A7U7EVR3 213-364 L344A): T2 sequence (A0A7U7EVR3 213-364 Y248A)
Experimental: as §1, §2, §3

USPSa-V310A = USPSa-V310A (Staphylococcus aureus, UniProt A0A7U7EVR3, V310A); experiment: as above; conditions: V310A mutant, MST, read-out: Dissociation Constant (KD) ± Standard Deviation
Experimental: as §1, §2, §3

USPSa-H331A = target: T4, USPSa-H331A (Staphylococcus aureus, UniProt A0A7U7EVR3, H331A); experiment: as above; conditions: H331A mutant; MST, initial fluorescence; read-out: Dissociation Constant (KD) ± Standard Deviation
T4 sequence (A0A7U7EVR3 213-364 H331A): T2 sequence (A0A7U7EVR3 213-364 Y248A)
Experimental: as §1, §2, §3

USPSa-Q280A = USPSa-Q280A (Staphylococcus aureus, UniProt A0A7U7EVR3, Q280A); experiment: as above; conditions: Q280A mutant, MST, read-out: Dissociation Constant (KD) ± Standard Deviation
Experimental: as §1, §2, §3

USPSa-S244D = target: T5, USPSa-S244D (Staphylococcus aureus, UniProt A0A7U7EVR3, S244D); experiment: as above; conditions: S244D mutant
T5 sequence (A0A7U7EVR3 213-364 S244D): T2 sequence (A0A7U7EVR3 213-364 Y248A)
Experimental: as §1, §2, §3

USPSa-A242G = target: T6, USPSa-A242G (Staphylococcus aureus, UniProt A0A7U7EVR3, A242G); experiment: as above
T6 sequence (A0A7U7EVR3 213-364 A242G): T2 sequence (A0A7U7EVR3 213-364 Y248A)
Experimental: as §1, §2, §3

USPSa-N249A = target: T7, USPSa-N249A (Staphylococcus aureus, UniProt A0A7U7EVR3, N249A); experiment: as above; conditions: N249A mutant
T7 sequence (A0A7U7EVR3 213-364 N249A): T2 sequence (A0A7U7EVR3 213-364 Y248A)
Experimental: as §1, §2, §3

USPSa-Y281F = target: T8, USPSa-Y281F (Staphylococcus aureus, UniProt A0A7U7EVR3, Y281F); experiment: as above; conditions: Y281F mutant; MST, initial fluorescence; read-out: Dissociation Constant (KD) ± Standard Deviation
T8 sequence (A0A7U7EVR3 213-364 Y281F): T2 sequence (A0A7U7EVR3 213-364 Y248A)
Experimental: as §1, §2, §3

USPSa-S246A = target: T9, USPSa-S246A (Staphylococcus aureus, UniProt A0A7U7EVR3, S246A); experiment: as above; conditions: S246A mutant; MST, initial fluorescence; read-out: Dissociation Constant (KD) ± Standard Deviation
T9 sequence (A0A7U7EVR3 213-364 S246A): T2 sequence (A0A7U7EVR3 213-364 Y248A)
Experimental: as §1, §2, §3

USPSa2-WT = USPSa2-WT (Staphylococcus aureus, UniProt Q5HK61); experiment: biochemical; assay type: binding; conditions: MST, change in thermophoretic mobility, read-out: Dissociation Constant (KD) ± Standard Deviation
USPSa-S244A = experiment: MicroScale Thermophoresis (initial fluorescence change) nucleotide binding; design: species or system Staphylococcus aureus; conditions: S244A mutant
Experimental: as §1, §2, §3

USPSp-WT = assay type: binding, Streptococcus pneumoniae; conditions: MST, change in thermophoretic mobility, read-out: Dissociation Constant (KD) ± Standard Deviation
USPSa-R279A = USPSa-R279A (Staphylococcus aureus, UniProt A0A7U7EVR3, R279A); experiment: MicroScale Thermophoresis (thermophoretic mobility change) nucleotide binding; conditions: R279A mutant; MST, change in thermophoretic mobility; read-out: Dissociation Constant (KD) ± Standard Deviation
Experimental: as §1, §2, §3

USPSa-WT [2] = target: T1, USPSa-WT; experiment: as above; conditions: MST, change in thermophoretic mobility, read-out: Dissociation Constant (KD) ± Standard Deviation
Experimental: as §1, §2, §3

USPSa-K277A = target: T10, USPSa-K277A (Staphylococcus aureus, UniProt A0A7U7EVR3, K277A); experiment: as above; conditions: K277A mutant; MST, change in thermophoretic mobility; read-out: Dissociation Constant (KD) ± Standard Deviation
T10 sequence (A0A7U7EVR3 213-364 K277A): T2 sequence (A0A7U7EVR3 213-364 Y248A)
Experimental: as §1, §2, §3

[3] = target: maltose-binding protein–tagged USP; conditions: differential radial capillary action of ligand assay, read-out: previously reported KD; cited from earlier work
[4] = test system: maltose-binding protein–tagged version of the USPSa Y271A mutant; design: method as in PMID 26195599; conditions: cited from earlier work
USPMtb-WT = target: T11, USPMtb-WT (Mycobacterium tuberculosis, UniProt P9WGL3); experiment: biochemical; assay type: binding
T11 construct: made in house; host or cells: E. coli C41 (DE3), pTB146, no KdpE co-expression

With Nc1ncnc2c1ncn2[C@@H]1O[C@@H]2COP(=O)(O)O[C@H]3[C@@H](O)[C@H](n4cnc5c(N)ncnc54)O[C@@H]3COP(=O)(O)O[C@H]2[C@H]1O [c-di-AMP, cyclic-di-adenosine monophosphate] the “increase of melting temperature of USPSa” value (untagged USPSa) was 10 °C, the Kd (USPSa-WT [1]; Dissociation Constant (KD) ± Standard Deviation) was 500 nM and 530 nM and the Kd (USPSa-Y248A) was 4220 ± 110 nM. It also gave a Kd (USPSa-K282A) of 600 ± 240 nM, a Kd (USPSa-L344A) of 8840 ± 1090 nM and a Kd (USPSa-V310A) of 1710 ± 420 nM. The Kd (USPSa-H331A) was 2370 ± 1320 nM, the Kd (USPSa-Q280A) was 870 ± 60 nM and the “binding (in words)” value (USPSa-S244D) was “completely abolished”. For the same compound, the “Dissociation Constant (KD) ± Standard Deviation” value (USPSa-S244D; MST, initial fluorescence) was “No Binding Observed”, the “improvement of binding affinity versus WT USPSa” value (USPSa-A242G) was roughly 50 fold and the Kd (USPSa-A242G; A242G mutant, MST, initial fluorescence, read-out: Dissociation Constant (KD) ± Standard Deviation) was 10 ± 10 nM. The “binding affinity versus WT USPSa (in words)” value (USPSa-N249A) was “significant reduction”, the Kd (USPSa-N249A; MST, initial fluorescence, read-out: Dissociation Constant (KD) ± Standard Deviation) was 7840 ± 340 nM and the Kd (USPSa-Y281F) was 1790 ± 840 nM. The Kd (USPSa-S246A) was 1300 ± 190 nM, the Kd (USPSa2-WT) was 125000 ± 15000 nM and the “binding in MST analysis (in words)” value (USPSa-S244A) was “complete loss”. The “Dissociation Constant (KD) ± Standard Deviation” value (USPSa-S244A; MST, initial fluorescence) was “No Binding Observed”, the Kd (USPSp-WT) was 67500 ± 13000 nM and the Kd (USPSa-R279A) was 8670 ± 750 nM. The Kd (USPSa-WT [2]) was 3130 ± 750 nM, the Kd (USPSa-K277A) was 10100 ± 240 nM and the Kd [3] was 2000 ± 180 nM. The “c-di-AMP binding in vitro (in words)” value [4] was “deficient in c-di-AMP binding” and the Kd (USPMtb-WT) was 666000 ± 168000 nM.
In the case of Nc1nc2c(ncn2[C@@H]2O[C@@H]3COP(=O)(O)O[C@H]4[C@@H](O)[C@H](n5cnc6c(=O)[nH]c(N)nc65)O[C@@H]4COP(=O)(O)O[C@H]3[C@H]2O)c(=O)[nH]1 [c-di-GMP], the “Dissociation Constant (KD) ± Standard Deviation” value (USPSa-WT [1]) is reported as “No Binding Observed”.
With Nc1ncnc2c1ncn2[C@@H]1O[C@@H]2COP(=O)(O)O[C@H]3[C@@H](O)[C@H](n4cnc5c(N)ncnc54)O[C@@H]3COP(=O)(O)O[C@H]3[C@@H](O)[C@H](n4cnc5c(N)ncnc54)O[C@@H]3COP(=O)(O)O[C@H]2[C@H]1O [c-tri-AMP] the “Dissociation Constant (KD) ± Standard Deviation” value (USPSa-WT [1]) was “No Binding Observed”.
